Here are results for 2 compounds from US20080221047A1, “Aminoakyl methacrylate copolymer E for maintaining solubility of poorly-soluble drug” (ASTELLAS PHARMA INC.,, priority 2006, published 2008).

The structures appear in SMILES notation.

The nature of series [1]: Reprecipitation test for compound A with copolymers of different amounts of neutralization, Experimental Example 3. It counts as physicochemical. To be noted: compound A in acetonitrile; fluid containing copolymer E of Examples 5, 6 or 7 (every Example). On the procedure:
Each of the aminoalkyl methacrylate copolymers E having a solubility enhanced with acid prepared in Examples 5, 6, and 7 was dissolved in 500 mL of a second fluid for dissolution test used in a dissolution test described in the Japanese Pharmacopoeia fifteenth edition.
(§1) To each vessel, 2 mL of a solution of compound A (25 mg/mL) in acetonitrile was added, and an automated dissolution tester (Toyama Sangyo Co., Ltd.) was used to carry out a reprecipitation test for compound A, in accordance with a dissolution test, method 2, described in the Japanese Pharmacopoeia. The absorbance of compound A was measured at a wavelength of 273 nm. The paddle rotation speed was 50 rpm. The percentage dissolved was calculated on the basis that an absorbance of 0.576 when measured using a 1 mm cell was regarded as a concentration of 100 μg/mL (compound A).

Series [2] is described as follows: Reprecipitation (dissolution) test for compound A dissolved in acetonitrile, Experimental Example 1. It counts as physicochemical. The method, then:
Each (50 mg) of the aminoalkyl methacrylate copolymer E having a solubility enhanced with acid prepared in Example 1, hydroxypropylmethylcellulose 2910 (TC-5E, Shin-Etsu Chemical Co., Ltd.), and copolyvidone (Kollidon VA-64, BASF) was dissolved in 500 mL of a second fluid for disintegrating test used in a disintegrating test described in the Japanese Pharmacopoeia fifteenth edition. For comparison, 500 mL of a second fluid for disintegrating test used in a disintegrating test described in the Japanese Pharmacopoeia fifteenth edition without such additives was prepared.
as §1, with “dissolution tester (manufactured by Toyama Sangyo Co.,” for “dissolution tester (Toyama Sangyo Co.,”, “Pharmacopoeia. The ultraviolet absorbance of” for “Pharmacopoeia. The absorbance of”

The nature of series [3]: Reprecipitation test for compound A with copolymer solubilized with citric acid, Experimental Example 4. It counts as physicochemical. To be noted: compound A in acetonitrile; fluid containing copolymer E of Example 8 (citric acid). The method, then:
Each (50 mg) of the aminoalkyl methacrylate copolymers E having a solubility enhanced with acid prepared in Examples 1 and 8 was dissolved in 500 mL of a second fluid for disintegrating test used in a disintegrating test described in the Japanese Pharmacopoeia fifteenth edition. For comparison, 500 mL of a second fluid for disintegrating test used in a disintegrating test described in the Japanese Pharmacopoeia fifteenth edition without such additives was prepared.
(§2) To each vessel, 2 mL of a solution of compound A (25 mg/mL) in acetonitrile was added, and an automated dissolution tester (Toyama Sangyo Co., Ltd.) was used to carry out a reprecipitation test for compound A, in accordance with a dissolution test, method 2, described in the Japanese Pharmacopoeia. The ultraviolet absorbance of compound A was measured at a wavelength of 273 nm. The paddle rotation speed was 50 rpm. The percentage dissolved was calculated on the basis that an absorbance of 0.576 when measured using a 1 mm cell was regarded as a concentration of 100 μg/mL (compound A).

Series [4] can be described thus: Reprecipitation (dissolution) test for compound A dissolved in polyethylene glycol 400, Experimental Example 2. To be noted: compound A in polyethylene glycol 400. It counts as physicochemical. On the procedure: Each (50 mg) of the aminoalkyl methacrylate copolymer E having a solubility enhanced with acid prepared in Example 1, and hydroxypropylmethylcellulose 2910 (TC-5E, Shin-Etsu Chemical Co., Ltd.) was dissolved in 500 mL of a second fluid for dissolution test used in a dissolution test described in the Japanese Pharmacopoeia fifteenth edition. For comparison, 500 mL of a second fluid for dissolution test used in a dissolution test described in the Japanese Pharmacopoeia fifteenth edition without such additives was prepared.
as §2, with “polyethylene glycol 400 (Kanto Chemical Co., Inc.)” for “acetonitrile”, “(manufactured by Toyama” for “(Toyama”

Series [5] can be described thus: Reprecipitation (dissolution) test for tacrolimus dissolved in ethanol, Experimental Example 6. It counts as physicochemical. The method, then:
Each (300 mg) of the aminoalkyl methacrylate copolymer E having a solubility enhanced with acid prepared in Example 4, and hydroxypropylmethylcellulose 2910 (TC-5E, Shin-Etsu Chemical Co., Ltd.) was dissolved in 300 mL of a second fluid for disintegrating test used in a disintegrating test described in the Japanese Pharmacopoeia fifteenth edition. For comparison, 300 mL of a second fluid for disintegrating test used in a disintegrating test described in the Japanese Pharmacopoeia fifteenth edition without such additives was prepared.
To each vessel, 1 mL of a solution of tacrolimus (100 mg/mL) in ethanol was added. Samples were taken at regular intervals, and centrifuged at 3000 rpm for 15 minutes. Tacrolimus dissolved in each supernatant was measured by a high performance liquid chromatography.

For series [6] the following is noted: cited from earlier work.
[7] abbreviates: fluid containing hydroxypropylmethylcellulose 2910, after 2 hours.

As to `Cc1cccc(C)c1N(CC(=O)Nc1ccc(-c2ncon2)cc1)C(=O)C1CCS(=O)(=O)CC1` [compound A, N-(2,6-Dimethylphenyl)-N-(2-{[4-(1,2,4-oxadiazol-3-yl)phenyl]amino}-2-oxoethyl)tetrahydro-2H-thiopyran-4-carboxamide 1,1-dioxide], the maintenance of solubility result is reported as “a high solubility was maintained for a long time” in series [1] and “maintained for a long time” in series [3]. Also, the percentage dissolved result in series [2] (compound A in acetonitrile added to JP second fluid containing copolymer E of Example 1 (50 mg/500 mL), after 24 hours) is recorded as “approximately 75%”; in series [2] (compound A in acetonitrile added to JP second fluid containing copolyvidone (50 mg/500 mL), after 2 hours), “approximately 30%”; in series [2] (compound A in acetonitrile added to JP second fluid containing hydroxypropylmethylcellulose 2910 (50 mg/500 mL), after 2 hours), “approximately 30%”; in series [4] (fluid containing copolymer E of Example 1, after 24 hours), “approximately 75%”; in series [4] (setting [7]) it was “approximately 30%”. In addition, the reprecipitation entry in series [2] (compound A in acetonitrile added to JP second fluid, absence of additives) is on record as “reprecipitated immediately after the beginning of the test”; in series [4] (absence of additives), “reprecipitated immediately after the beginning of the test”.
On to `C=CC[C@@H]1/C=C(\C)C[C@H](C)C[C@H](OC)[C@H]2O[C@@](O)(C(=O)C(=O)N3CCCC[C@H]3C(=O)O[C@H](/C(C)=C/[C@@H]3CC[C@@H](O)[C@H](OC)C3)[C@H](C)[C@@H](O)CC1=O)[C@H](C)C[C@@H]2OC` [tacrolimus], for which the reprecipitation result in series [5] (absence of additives) is “reprecipitated immediately after the beginning of the test”. Further, the percentage dissolved in series [5] (fluid containing copolymer E of Example 4, after 24 hours) was at least 90%; in series [5] (setting [7]), “approximately 20%”. Further, in series [6], the water solubility is at most 1 µg/mL.
